Measured values as given in PubChem BioAssay (NCI).
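Cells were grown in 96-well plates and exposed to each compound for 48 hours at five concentrations; endpoints were interpolated linearly between bracketing concentrations, or set to the highest concentration if not reached. GI50 marks 50% less growth. TGI: concentration producing complete growth inhibition.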

Legend:
Test in all cases: NCI-60 cell line screen, 48 h
[1] = test system: CAKI-1 renal
[2] = test system: NCI/ADR-RES ovarian
[3] = test system: SF-539 CNS
[4] = test system: SW-620 colon
[5] = test system: HOP-92 NSCLC
[6] = test system: COLO 205 colon
[7] = test system: UO-31 renal
[8] = test system: 786-0 renal
[9] = test system: SNB-75 CNS
[10] = test system: CCRF-CEM leukemia
[11] = test system: SK-MEL-2 melanoma
[12] = test system: HCC-2998 colon
[13] = test system: SK-MEL-28 melanoma
[14] = test system: SF-295 CNS
[15] = test system: K-562 leukemia
[16] = test system: NCI-H460 lung
[17] = test system: OVCAR-3 ovarian
[18] = test system: SK-MEL-5 melanoma
[19] = test system: SN12C renal
[20] = test system: HCT-15 colon
[21] = test system: TK-10 renal
[22] = test system: HOP-62 NSCLC
[23] = test system: SF-268 CNS
[24] = test system: RPMI-8226 leukemia
[25] = test system: MALME-3M melanoma
[26] = test system: MCF7 breast
[27] = test system: ACHN renal
[28] = test system: HCT-116 colon
[29] = test system: A498 renal
[30] = test system: NCI-H23 lung
[31] = test system: MDA-MB-435
[32] = test system: EKVX NSCLC
[33] = test system: SK-OV-3 ovarian
[34] = test system: OVCAR-8 ovarian
[35] = test system: BT-549 breast
[36] = test system: T-47D breast
[37] = test system: HS 578T breast
[38] = test system: NCI-H226 lung
[39] = test system: DU-145 prostate
[40] = test system: RXF 393 renal
[41] = test system: KM12 colon
[42] = test system: SNB-19 CNS
[43] = test system: OVCAR-4 ovarian
[44] = test system: MOLT-4 leukemia
[45] = test system: MDA-MB-231 breast
[46] = test system: UACC-257 melanoma
[47] = test system: HT29 colon
[48] = test system: UACC-62 melanoma
[49] = test system: LOX IMVI melanoma
[50] = test system: U251 CNS
[51] = test system: A549 NSCLC
[52] = test system: PC-3 prostate
[53] = test system: OVCAR-5 ovarian
[54] = test system: HL-60(TB) leukemia

Work on `Ic1ccc2[nH]cc(SSc3c[nH]c4ccc(I)cc34)c2c1` yielded a GI50 [1] of 2.23 µM, a TGI [1] of 6.3 µM and a GI50 [2] of 2.57 µM. It also gave a TGI [2] of 7.13 µM, a GI50 [3] of 2.39 µM and a TGI [3] of 9.29 µM. It also gave a GI50 [4] of 2.74 µM, a TGI [4] of 10.5 µM and a GI50 [5] of 0.936 µM. It also gave a TGI [5] of 3.69 µM, a GI50 [6] of 1.91 µM and a TGI [6] of 4.02 µM. The GI50 [7] was 3.06 µM, the TGI [7] was 17.3 µM and the GI50 [8] was 3.49 µM. For the same compound, the TGI [8] was 12.4 µM, the GI50 [9] was 2.36 µM and the TGI [9] was 9.28 µM. It also gave a GI50 [10] of 1.25 µM, a TGI [10] of 3.48 µM and a GI50 [11] of 2.3 µM. It also gave a TGI [11] of 6.96 µM, a GI50 [12] of 2.34 µM and a TGI [12] of 4.76 µM. It also gave a GI50 [13] of 3.36 µM, a TGI [13] of 12.6 µM and a GI50 [14] of 1.89 µM. The TGI [14] was 4.69 µM, the GI50 [15] was 2 µM and the TGI [15] was 6.27 µM. It also gave a GI50 [16] of 2.41 µM, a TGI [16] of 6.52 µM and a GI50 [17] of 1.73 µM. For the same compound, the TGI [17] was 5.56 µM, the GI50 [18] was 3.18 µM and the TGI [18] was 13.5 µM. It also gave a GI50 [19] of 2.86 µM, a TGI [19] of 11 µM and a GI50 [20] of 2.21 µM. The TGI [20] was 10.4 µM, the GI50 [21] was 2.88 µM and the TGI [21] was 10.1 µM. The GI50 [22] was 3.14 µM, the TGI [22] was 8.71 µM and the GI50 [23] was 2.99 µM. It also gave a TGI [23] of 10.9 µM, a GI50 [24] of 1.78 µM and a TGI [24] of 5.5 µM. The GI50 [25] was 1.92 µM, the TGI [25] was 8.29 µM and the GI50 [26] was 2.69 µM. It also gave a TGI [26] of 11.6 µM, a GI50 [27] of 2.25 µM and a TGI [27] of 6.99 µM. It also gave a GI50 [28] of 1.25 µM, a TGI [28] of 3.08 µM and a GI50 [29] of 2.06 µM. It also gave a TGI [29] of 5.97 µM, a GI50 [30] of 2.36 µM and a TGI [30] of 7.96 µM. For the same compound, the GI50 [31] was 2.84 µM, the TGI [31] was 8.97 µM and the GI50 [32] was 1.2 µM. It also gave a TGI [32] of 10.1 µM, a GI50 [33] of 3.46 µM and a TGI [33] of 11.7 µM. The GI50 [34] was 3.77 µM, the TGI [34] was 17.8 µM and the GI50 [35] was 1.35 µM. It also gave a TGI [35] of 7.04 µM, a GI50 [36] of 2.68 µM and a TGI [36] of 11.2 µM. For the same compound, the GI50 [37] was 1.93 µM, the TGI [37] was 6.24 µM and the GI50 [38] was 1.98 µM. For the same compound, the TGI [38] was 9.35 µM, the GI50 [39] was 3.47 µM and the TGI [39] was 12.9 µM. It also gave a GI50 [40] of 1.5 µM, a TGI [40] of 5.68 µM and a GI50 [41] of 1.5 µM. It also gave a TGI [41] of 5.83 µM, a GI50 [42] of 3.25 µM and a TGI [42] of 11.9 µM. For the same compound, the GI50 [43] was 3.02 µM, the TGI [43] was 16.6 µM and the GI50 [44] was 1.7 µM. The TGI [44] was 4.62 µM, the GI50 [45] was 2.1 µM and the TGI [45] was 5.13 µM. The GI50 [46] was 2.79 µM, the TGI [46] was 6.74 µM and the GI50 [47] was 3.36 µM. It also gave a TGI [47] of 11.2 µM, a GI50 [48] of 2.7 µM and a TGI [48] of 11.5 µM. It also gave a GI50 [49] of 1.43 µM, a TGI [49] of 3.51 µM and a GI50 [50] of 2.25 µM. For the same compound, the TGI [50] was 10.1 µM, the GI50 [51] was 3.65 µM and the TGI [51] was 12 µM. For the same compound, the GI50 [52] was 0.492 µM, the TGI [52] was 4.65 µM and the GI50 [53] was 2.38 µM. It also gave a TGI [53] of 6.11 µM, a GI50 [54] of 1.18 µM and a TGI [54] of 3.56 µM.
